Assay [1] concerns radiation induced fibrosarcoma (RIF) tumor cell. Nature of the assay: In vitro photosensitizing activity in RIF tumor cells (MTT). The format is cell-based. The note with it: 2.0 μM, light dose of 4 J/cm2. The protocol: Both cell lines are known to have some expression for Galectin-1 (Sacchettini, J. C., Baum, L. G. and Brewer, C. F., Multivalent Protein-carbohydrate Interactions. A New Paradiagm for Super Molecular Assembly and Signal Transduction, Biochemistry, 40:3009-3015, 2001). The Molt-4 cells were grown in RPMI 1640 5% FCS (Fetal calf serum) in 100% humidity with 5% CO2. Cells were transferred to phenol red free (PRF) RPMI 1640 media with 1% FCS and plated at 2.5×10^4 cells/well. After 3 hours incubation in the dark, the cells were washed once with PBS and re-suspended in prf RPMI 1640 with 1% FCS. These cells were then illuminated with a 1000W Quartz Halogen Lamp with IR and bandpass dichroic filters to allow light between 400 nm-700 nm, at a dose rate of 16 mW/cm^2 at 695 nm. The RIF tumor cells were grown in alpha-DMEM with 10% fetal calf serum, penicillin and streptomycin. Cells were maintained in 5% CO2, 95% air and 100% humidity. For determining the PDT efficacy, these cells were plated in 96-well plates and a density of 1×10^4 cells well in complete media. After overnight incubation to allow the cells to attach the photosensitizers 14 were individually added at variable concentrations. After a 3 hr incubation in the dark at 37° C., the cells were washed once with PBS, then irradiated with the same light source as above (Molt-4 procedure), and the optimal cell kill was obtained at a concentration of 1.0 μM. After PDT the cells were washed once and placed in complete media and incubated for 48 hrs. […] The 96-well plate was read on a microtiter plate reader (Miles Inc. Titertek Multiscan Plus MK II) at an absorbance of 560 nm. […]

In assay [2] the test system is Molt-4 human leukemic T-cells. Briefly: In vitro photosensitizing efficacy in Molt-4 cells (MTT). In kind it is cell-based. The note with it: Molt-4 cells; for effect of free lactose on PDT efficacy of the photosensitizer: photosensitizer with lactose in a ratio of 1:100, without washing. The protocol: Both cell lines are known to have some expression for Galectin-1 ([…]., Baum, L. G. and Brewer, C. F., Multivalent Protein-carbohydrate Interactions. A New […] for Super Molecular Assembly and Signal Transduction, Biochemistry, 40:3009-3015, 2001). The Molt-4 cells were grown in RPMI 1640 5% FCS (Fetal calf serum) in 100% humidity with 5% CO2. Cells were transferred to phenol red free (PRF) RPMI 1640 media with 1% FCS and plated at 2.5×10^4 cells/well. After 3 hours incubation in the dark, the cells were washed once with PBS and re-suspended in prf RPMI 1640 with 1% FCS. These cells were then illuminated with a […] Quartz Halogen Lamp with IR and bandpass dichroic filters to allow light between 400 nm-700 nm, at a dose rate of 16 mW/cm^2 at 695 nm. The RIF tumor cells were grown in alpha-DMEM with 10% fetal calf serum, penicillin and streptomycin. Cells were maintained in 5% CO2, 95% air and 100% humidity. […] After overnight incubation to allow the cells to attach the photosensitizers 14 were individually added at variable concentrations. After a 3 hr incubation in the dark at 37° C., the cells were washed once with PBS, then irradiated with the same light source as above (Molt-4 procedure), and the optimal cell kill was obtained at a concentration of 1.0 μM. After PDT the cells were washed once and placed in complete media and incubated for 48 hrs. […] Louis, Mo.) was added to each well (Kessel, D., Luo, Y., Photodynamic Therapy: A Mitochondrial Inducer of Apoptosis, Cell Death Differ. 6:28-35, 1999; MacDonald, I., Morgan, […]., Litchfield, D. J. Dougherty, T. J., Subcellular Localization Patterns and their Relationship to Photodynamic Activity of Pyropheophorbide-a Derivatives, Photochem. Photobiol., 70, 789-997, 1999). After 4 hr incubation at 37° C. the MTT+media were removed and 100 μl DMSO was added to solubilize the formazin crystals. The 96-well plate was read on a microtiter plate reader (Miles Inc. Titertek Multiscan Plus MK II) at an absorbance of 560 nm. The results were plotted as percent survival of the corresponding dark (drug no light) control for each compound tested. Each data point represents the mean from 3 separate experiments, and the error bars are the standard deviation. Each experiment was done with 5 replicate wells. […] The cells were then washed once with phosphate buffer saline (PBS), carbohydrate conjugates were then added, and the cells were again incubated for an additional 3 hrs. After treating with light, the cells were re-suspended in fresh media and incubated for 48 hrs. MTT was added to the cells and incubated for an additional 4 hrs. Dimethylsulfoxide (100 μl) was then added to each well to dissolve the formazin crystals. The plates were read on a 96 well plate reader at an absorbance of 560 nm. The data are in replicates of 6 wells and are normalized to control cells (light, no drug). In another set of experiments, a similar procedure was followed, except, the cells were not washed before the light treatment. […] Louis, Mo.) was added to the cells and incubated for an additional 4 hrs. Dimethylsulfoxide (100 μl) was then added to each well to dissolve the formazin crystals. The plates were read on a 96 well plate reader (Miles Inc. Titertek Multiscan Plus MK II) at an absorbance of 560 nm. The data are in replicates of 6 wells and are normalized to control cells (light, no drug).

In the case of “Mesopurpurin-18-N-methyl-(2′-butadiene)imide [1a]”, in assay [1], the cell kill entry is “approximately 40%”. Moreover, in assay [2], the “effect of free lactose on PDT efficacy of the photosensitizer” value is listed as “did not produce any change in photocytotoxic ability”.
Turning to `C=C(C=CCO[C@@H]1O[C@H](CO)[C@@H](O[C@@H]2O[C@H](CO)[C@H](O)[C@H](O)[C@H]2O)[C@H](O)[C@H]1O)CN1C(=O)c2c3nc(cc4[nH]c(cc5nc(cc6[nH]c2c(c6C)C1=O)C(CC)=C5C)c(CC)c4C)C(C)C3CCC(=O)OC` (mixture of isomers) [4a, Lactose-Chlorin conjugate joined with diene linkage], the cell kill in assay [1] amounted to 100%. The “in vitro photosensitizing efficacy (in words)” value in assay [2] (2.0 μM, 2a, 3a compared to 1a, 4a compared to 2a and 3a) is listed as “better pbotosensitizer”. The “effect of free lactose on PDT efficacy of the photosensitizer” value in assay [2] is listed as “complete inhibition in PDT efficacy”.

Source of the values: patent publication US6849607B2, “Galectin recognized photosensitizers for photodynamic therapy” (Health Research, Inc., priority 2001, dated 2005).
